Several values for one entry are separate records, joined by “and”; a condition that tells them apart may be missing. Identical values can stand only once. Like-named read-outs stand apart in the source and are kept apart here.
What was measured:
Suit2-07 cells = test: Cell proliferation assay, GEM + ATR inhibitor (Incucyte confluence, 72 h); type: cell-based, human; settings: for EC50: Homo sapiens; for Response: R1; for Curve top: plateau of fitted curve, ratio drug/vehicle confluence;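 for all read-outs here: Suit2-07 cells grown in 96-well plates at 37 °C, 5% CO2, raw 72 h confluence taken without normalizing to starting confluence, each experiment done in triplicate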
Description: (§1) Cells were seeded at 5000 cells/well into 96-well flat bottom plates (Eppendorf) and allowed to attach overnight. […] Cells were incubated for 72 h at 37 °C and 5% CO2. Cell confluence readouts at 72 h were either normalized to their initial confluence using the Incucyte software (AsPC-1) or used without prior normalization (all others). […] Each experiment was performed in triplicates, the data was plotted as mean ± standard deviation (s.d.).

PANC-1 cells = test: as above; settings: for EC50: Homo sapiens; for Response: ATRi 0 nM (GEM), R1-R3;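 for EC50: in combination experiments GEM is titrated while ATRi is held at a fixed sub-EC50 dose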;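 for all read-outs here: PANC-1 confluence at 72 h taken as raw values, not normalized to starting confluence, with each experiment run in triplicate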
Description: as §1

[1] = PANC-1, experiment GEM (GEM alone), plateau of fitted curve, ratio drug/vehicle confluence

SMILES: C[C@@H]1COCCN1c1cc(C2([S@](C)(=N)=O)CC2)nc(-c2cc[nH]c3nccc2-3)n1 [Ceralasertib]
- EC50 (Suit2-07 cells; 72 h, Suit2-07, experiment ATRi (ATR inhibitor alone), -log10 of EC50 [M], read-out: pEC50 (converted)): 3.24e-06 M
- EC50 (Suit2-07 cells; 72 h, Suit2-07, experiment ATRi (ATR inhibitor alone), mean (one replicate), read-out: EC50 mean): 3.24e-06 M
- EC50 (Suit2-07 cells; 72 h, Suit2-07, experiment ATRi (ATR inhibitor alone), replicate R1, read-out: EC50): 3.24e-06 M
- Response (Suit2-07 cells; Suit2-07, GEM+ATRi_dose1, GEM 0 nM + ATRi 10 nM, in % (unit assumed)): 99.44
- Response (Suit2-07 cells; Suit2-07, GEM+ATRi_dose1, GEM 1 nM + ATRi 10 nM, in % (unit assumed)): 97.06
- Response (Suit2-07 cells; Suit2-07, GEM+ATRi_dose1, GEM 3 nM + ATRi 10 nM, in % (unit assumed)): 98.33
- Response (Suit2-07 cells; Suit2-07, GEM+ATRi_dose1, GEM 10 nM + ATRi 10 nM, in % (unit assumed)): 33.90
- Response (Suit2-07 cells; Suit2-07, GEM+ATRi_dose1, GEM 30 nM + ATRi 10 nM, in % (unit assumed)): 18.26
- Response (Suit2-07 cells; Suit2-07, GEM+ATRi_dose1, GEM 100 nM + ATRi 10 nM, in % (unit assumed)): 14.84
- Response (Suit2-07 cells; Suit2-07, GEM+ATRi_dose1, GEM 300 nM + ATRi 10 nM, in % (unit assumed)): 14.60
- Response (Suit2-07 cells; Suit2-07, GEM+ATRi_dose1, GEM 1000 nM + ATRi 10 nM, in % (unit assumed)): 10.84
- Response (Suit2-07 cells; Suit2-07, GEM+ATRi_dose1, GEM 3000 nM + ATRi 10 nM, in % (unit assumed)): 13.52
- Response (Suit2-07 cells; Suit2-07, GEM+ATRi_dose2, GEM 0 nM + ATRi 3 nM, in % (unit assumed)): 99.06
- Response (Suit2-07 cells; Suit2-07, GEM+ATRi_dose2, GEM 1 nM + ATRi 3 nM, in % (unit assumed)): 97.53
- Response (Suit2-07 cells; Suit2-07, GEM+ATRi_dose2, GEM 3 nM + ATRi 3 nM, in % (unit assumed)): 42.89
- Response (Suit2-07 cells; Suit2-07, GEM+ATRi_dose2, GEM 10 nM + ATRi 3 nM, in % (unit assumed)): 18.83
- Response (Suit2-07 cells; Suit2-07, GEM+ATRi_dose2, GEM 30 nM + ATRi 3 nM, in % (unit assumed)): 15.03
- Response (Suit2-07 cells; Suit2-07, GEM+ATRi_dose2, GEM 100 nM + ATRi 3 nM, in % (unit assumed)): 14.03
- Response (Suit2-07 cells; Suit2-07, GEM+ATRi_dose2, GEM 300 nM + ATRi 3 nM, in % (unit assumed)): 10.54
- Response (Suit2-07 cells; Suit2-07, GEM+ATRi_dose2, GEM 1000 nM + ATRi 3 nM, in % (unit assumed)): 10.54
- Response (Suit2-07 cells; Suit2-07, GEM+ATRi_dose2, GEM 3000 nM + ATRi 3 nM, in % (unit assumed)): 14.48
- Response (Suit2-07 cells; Suit2-07, GEM+ATRi_dose3, GEM 0 nM + ATRi 30 nM, in % (unit assumed)): 99.04
- Response (Suit2-07 cells; Suit2-07, GEM+ATRi_dose3, GEM 1 nM + ATRi 30 nM, in % (unit assumed)): 98.92
- Response (Suit2-07 cells; Suit2-07, GEM+ATRi_dose3, GEM 3 nM + ATRi 30 nM, in % (unit assumed)): 74.44
- Response (Suit2-07 cells; Suit2-07, GEM+ATRi_dose3, GEM 10 nM + ATRi 30 nM, in % (unit assumed)): 18.78
- Response (Suit2-07 cells; Suit2-07, GEM+ATRi_dose3, GEM 30 nM + ATRi 30 nM): 15.93
- Response (Suit2-07 cells; Suit2-07, GEM+ATRi_dose3, GEM 100 nM + ATRi 30 nM, in % (unit assumed)): 13.11
- Response (Suit2-07 cells; Suit2-07, GEM+ATRi_dose3, GEM 300 nM + ATRi 30 nM, in % (unit assumed)): 12.75
- Response (Suit2-07 cells; Suit2-07, GEM+ATRi_dose3, GEM 1000 nM + ATRi 30 nM, in % (unit assumed)): 9.23
- Response (Suit2-07 cells; Suit2-07, GEM+ATRi_dose3, GEM 3000 nM + ATRi 30 nM, in % (unit assumed)): 13.00
- Response (Suit2-07 cells; Suit2-07, experiment ATRi, ATRi 3 nM, GEM 0 nM, in % (unit assumed)): 99.07
- Response (Suit2-07 cells; Suit2-07, experiment ATRi, ATRi 10 nM, GEM 0 nM, in % (unit assumed)): 99.08
- Response (Suit2-07 cells; Suit2-07, experiment ATRi, ATRi 30 nM, GEM 0 nM, in % (unit assumed)): 98.55
- Response (Suit2-07 cells; Suit2-07, experiment ATRi, ATRi 100 nM, GEM 0 nM, in % (unit assumed)): 98.02
- Response (Suit2-07 cells; Suit2-07, experiment ATRi, ATRi 300 nM, GEM 0 nM, in % (unit assumed)): 95.91
- Response (Suit2-07 cells; Suit2-07, experiment ATRi, ATRi 1000 nM, GEM 0 nM, in % (unit assumed)): 89.97
- Response (Suit2-07 cells; Suit2-07, experiment ATRi, ATRi 3000 nM, GEM 0 nM, in % (unit assumed)): 57.79
- Response (Suit2-07 cells; Suit2-07, experiment ATRi, ATRi 10000 nM, GEM 0 nM, in % (unit assumed)): 20.77
- Curve top (Suit2-07 cells; Suit2-07, experiment GEM+ATRi_dose1): 0.15
- Curve top (Suit2-07 cells; Suit2-07, experiment GEM+ATRi_dose2): 0.14
- Curve top (Suit2-07 cells; Suit2-07, experiment GEM+ATRi_dose3): 0.13
- EC50 (PANC-1 cells; PANC-1, 72 h, read-out: EC50 mean [nM], PANC-1, experiment ATRi (ATR inhibitor alone), mean of replicates): 10500 nM
- EC50 (PANC-1 cells; PANC-1, read-out: EC50 mean [nM], PANC-1, experiment ATRi (ATR inhibitor alone), mean of replicates): 10500 nM
- EC50 (PANC-1 cells; PANC-1, read-out: EC50 mean [nM], PANC-1, experiment GEM+ATRi_dose1, mean of replicates): 12 nM
- EC50 (PANC-1 cells; PANC-1, read-out: EC50 mean [nM], PANC-1, experiment GEM+ATRi_dose2, mean of replicates): 22 nM
- EC50 (PANC-1 cells; PANC-1, read-out: EC50 mean [nM], PANC-1, experiment GEM+ATRi_dose3, mean of replicates): 14.5 nM
- Curve top (PANC-1 cells; PANC-1, experiment GEM+ATRi_dose1, plateau of fitted curve, ratio drug/vehicle confluence): 0.75 and 0.55 and 0.69
- Curve top (PANC-1 cells; PANC-1, experiment GEM+ATRi_dose2, plateau of fitted curve, ratio drug/vehicle confluence): 0.69 and 0.59 and 0.62
- Curve top (PANC-1 cells; PANC-1, experiment GEM+ATRi_dose3, plateau of fitted curve, ratio drug/vehicle confluence): 0.55 and 0.43 and 0.50

SMILES: Nc1ccn([C@@H]2O[C@H](CO)[C@@H](O)C2(F)F)c(=O)n1 [GEM, Gemcitabine]
- EC50 (Suit2-07 cells; 72 h, Suit2-07, experiment GEM (GEM alone, in the series of the ATRi named in column Drug), -log10 of EC50 [M], read-out: pEC50 (converted)): 8.32e-09 M
- EC50 (Suit2-07 cells; 72 h, Suit2-07, experiment GEM (GEM alone, in the series of the ATRi named in column Drug), mean (one replicate), read-out: EC50 mean): 8.26e-09 M
- EC50 (Suit2-07 cells; 72 h, Suit2-07, experiment GEM (GEM alone, in the series of the ATRi named in column Drug), replicate R1, read-out: EC50): 8.26e-09 M
- EC50 (Suit2-07 cells; Suit2-07, experiment GEM (GEM alone, in the series of the ATRi named in column Drug), -log10 of EC50 [M], read-out: pEC50 (converted)): 1.05e-08 M
- Response (Suit2-07 cells; Suit2-07, GEM 1 nM, ATRi 0 nM (GEM), in % (unit assumed)): 97.46
- Response (Suit2-07 cells; Suit2-07, GEM 3 nM, ATRi 0 nM (GEM), in % (unit assumed)): 93.41
- Response (Suit2-07 cells; Suit2-07, GEM 10 nM, ATRi 0 nM (GEM), in % (unit assumed)): 45.15
- Response (Suit2-07 cells; Suit2-07, GEM 30 nM, ATRi 0 nM (GEM), in % (unit assumed)): 20.11
- Response (Suit2-07 cells; Suit2-07, GEM 3000 nM, ATRi 0 nM (GEM), in % (unit assumed)): 10.86
- Response (Suit2-07 cells; Suit2-07, experiment GEM, GEM 1 nM, ATRi 0 nM, in % (unit assumed)): 98.60 and 97.96 and 97.60
- Response (Suit2-07 cells; Suit2-07, experiment GEM, GEM 3 nM, ATRi 0 nM, in % (unit assumed)): 96.04 and 96.69 and 98.44
- Response (Suit2-07 cells; Suit2-07, experiment GEM, GEM 10 nM, ATRi 0 nM, in % (unit assumed)): 49.03 and 57.12 and 55.81
- Response (Suit2-07 cells; Suit2-07, experiment GEM, GEM 30 nM, ATRi 0 nM, in % (unit assumed)): 23.93 and 25.24 and 25.44
- Response (Suit2-07 cells; Suit2-07, experiment GEM, GEM 100 nM, ATRi 0 nM, in % (unit assumed)): 15.01
- Response (Suit2-07 cells; Suit2-07, experiment GEM, GEM 300 nM, ATRi 0 nM, in % (unit assumed)): 14.46
- Response (Suit2-07 cells; Suit2-07, experiment GEM, GEM 1000 nM, ATRi 0 nM, in % (unit assumed)): 10.89
- Response (Suit2-07 cells; Suit2-07, experiment GEM, GEM 3000 nM, ATRi 0 nM, in % (unit assumed)): 10.34
- EC50 (PANC-1 cells; PANC-1, PANC-1, experiment GEM (GEM alone, in the series of the ATRi named in column Drug), replicates R1-R3): 58.4 nM
- EC50 (PANC-1 cells; PANC-1, read-out: pEC50, PANC-1 (converted), experiment GEM (GEM alone, in the series of the ATRi named in column Drug), -log10 of EC50 [M]): 58.9 nM
- Response (PANC-1 cells; PANC-1, GEM 1 nM): 55.73 and 93.02 and 87.94
- Response (PANC-1 cells; PANC-1, GEM 3 nM): 54.62 and 89.30 and 88.72
- Response (PANC-1 cells; PANC-1, GEM 10 nM): 65.10 and 93.01 and 80.93
- Response (PANC-1 cells; PANC-1, GEM 30 nM): 43.73 and 76.60 and 68.58
- Response (PANC-1 cells; PANC-1, GEM 300 nM): 45.56 and 60.97 and 63.22
- Response (PANC-1 cells; PANC-1, GEM 1000 nM): 38.26 and 66.03 and 59.27
- Response (PANC-1 cells; PANC-1, GEM 3000 nM): 35.94 and 56.55 and 61.30
- Curve bottom (PANC-1 cells; [1]): 1.02 and 1.05 and 1.06 and 0.91 and 1.00 and 0.98
- Curve top (PANC-1 cells; [1]): 0.74

Reference: paper PMC11876601 (Molecular Systems Biology, 2025)
